What was measured:
TRPV3-Y564A = biological target: T1, TRPV3-Y564A (Mus musculus, UniProt Q8K424, Y564A); test: Fura-2 ratiometric Ca2+ uptake, inhibition of 2-APB-evoked response; format: cell-based
T1 construct: expressed in transfected cells; host or cells: HEK 293 S GnTI- cells (baculovirus transduction)
T1 sequence (Q8K424 1-791 Y564A): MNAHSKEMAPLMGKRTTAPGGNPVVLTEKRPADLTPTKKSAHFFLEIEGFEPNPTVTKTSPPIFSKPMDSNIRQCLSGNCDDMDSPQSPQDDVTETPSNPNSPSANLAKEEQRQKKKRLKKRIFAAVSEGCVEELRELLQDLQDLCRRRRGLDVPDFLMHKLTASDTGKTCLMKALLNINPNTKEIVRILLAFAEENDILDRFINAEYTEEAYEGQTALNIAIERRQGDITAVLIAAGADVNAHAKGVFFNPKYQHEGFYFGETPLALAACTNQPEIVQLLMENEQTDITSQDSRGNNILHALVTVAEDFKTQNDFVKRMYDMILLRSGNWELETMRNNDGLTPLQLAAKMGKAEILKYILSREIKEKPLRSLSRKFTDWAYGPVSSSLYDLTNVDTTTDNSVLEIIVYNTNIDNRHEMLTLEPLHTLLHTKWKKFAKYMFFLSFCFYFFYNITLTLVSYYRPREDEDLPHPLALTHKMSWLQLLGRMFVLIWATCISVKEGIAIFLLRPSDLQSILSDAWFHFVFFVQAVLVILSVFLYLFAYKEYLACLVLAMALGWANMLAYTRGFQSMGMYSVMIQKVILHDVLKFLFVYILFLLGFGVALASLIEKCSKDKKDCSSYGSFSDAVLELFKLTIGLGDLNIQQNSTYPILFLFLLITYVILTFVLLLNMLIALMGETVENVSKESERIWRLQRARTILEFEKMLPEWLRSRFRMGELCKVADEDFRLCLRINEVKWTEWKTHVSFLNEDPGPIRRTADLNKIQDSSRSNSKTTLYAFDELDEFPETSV
Method: The Y564A mutation increases affinity to the TRPV3 agonist 2-APB[42] and decreases affinity to the competitive antagonist osthole.
GFP-free C-terminally strep-tagged wild-type TRPV3, TRPV3-Y564A, TRPV3-Y594A, TRPV3-F633A, TRPV3-I663W, and TRPV3-F666A were expressed in HEK 293 S GnTI^− cells as previously described[41],[42],[53]. In short, 48 h after transduction, 1-ml aliquots of cell suspension were collected by centrifugation at 550 g for 5 min using an Eppendorf 5424 centrifuge. The cells were resuspended in the pre-warmed modified HEPES-buffered saline (HBS) containing 118 mM NaCl, 4.8 mM KCl, 1 mM MgCl2, 5 mM D-glucose, and 10 mM HEPES pH 7.4 and 5 μg/ml Fura-2 AM (Thermo Fisher Scientific) and incubated for 45 min at 37 °C. The Fura-2-loaded cells were then centrifuged for 5 min at 550 g, resuspended in the pre-warmed, modified HBS and incubated again for 30 min at 37 °C in the dark. […] The washed cell pellets were kept on ice in the dark before taking an aliquot for fluorescence measurements. […] Fluorescence measurements were conducted using a QuantaMaster 40 spectrofluorometer (Photon Technology International) at room temperature in a quartz cuvette under constant stirring. […] Changes in intracellular Ca^2+ were measured by taking the ratio of fluorescence emitted at 510 nm at the excitation wavelength of 340 nm and 380 nm. […]

[1] = no reference given; cited from earlier work

SMILES: CCCCOc1ccc(C(=O)CCN2CCCCC2)cc1 [dyclonine, 1-(4-butoxyphenyl)-3-piperidin-1-ylpropan-1-one]
- IC50 (TRPV3-Y564A; 200 µM 2-APB, n = 4, negative control mutant): 31.5 ± 1 µM
- nHill of inhibition curve, Y564A (TRPV3-Y564A; logistic fit, n = 4): 2.33 ± 0.11
- pKa [1]: 8.36

Source: article PMC9120478 (Nature Communications, 2022)
